Each block holds one compound with its values, some of them ahead of it.
How the values were obtained:
[1] = Borate dissolution test in 300 mm water column; format: physicochemical; conditions: 0.2 g (0.08 weight %) in 250 ml deionized water, 300 mm column
Description: In this example, different forms of borates were added to columns of water and a swimming pool to determine their comparative dispersion and rate of dissolution characteristics.
Two hundred and fifty (250) ml of deionized water was placed in each of 4 measuring cylinders to give a 300 mm vertical column of water in each cylinder to mimic in small scale the depth of water in a swimming pool. […] The results of the addition were then observed visually and recorded.

algae = experiment: Algae growth suppression in lake water (Example 4); format: cell-based; conditions: 0.1 weight percent in lake water, two months outside in sun; higher = more algal growth
Description: From this lake sample, three 1 liter glass beakers were each filled with 900 mL of lake water. […] Sodium tetraborate was added to a second beaker to provide a concentration of 0.1 weight percent sodium tetraborate. The third beaker was left as an untreated control. The three samples, which were collected in August, were then left outside, fully exposed to the sun, for a period of two months.
After the two month period, the samples were then visually inspected for algal growth. The samples were also analyzed using a Spectronic Genesys 20 spectrophotometer from Thermo Scientific. This analysis was conducted by testing for absorbance at 330 nm.

[2] = Free chlorine and pH in 2000 gallon swimming pools (Example 6)

Compound: O.O.O.O.O=BOB1OB(OB=O)OB2OB([O-])OB([O-])OB(O1)O2.[Na+].[Na+] [disodium octaborate tetrahydrate]
dispersion and dissolution, observed visually [1]: immediately disperse and fully dissolve in a matter of seconds

Compound: O=BOB(O)OB(O)OB=O [Sodium tetraborate, sodium tetraborate]
Absorbance (Abs.) at 330 nm (algae): 0.01 Abs.

Compound: OB(O)O [boric acid, reference compound]
dispersion and dissolution, observed visually [1]: mostly float on top of the water and did not completely dissolve

pH for swimming pool water ([2]; 1:25 pm): 7.2-7.8
pH for swimming pool water ([2]; 2:10 pm): 7.2-7.8
pH for swimming pool water ([2]; 2:50 pm): 7.2-7.8
pH for swimming pool water ([2]; 3:30 pm): 7.2-7.8
pH for swimming pool water ([2]; 4:10 pm): 7.2-7.8
pH for swimming pool water ([2]; 5:00 pm): 7.2-7.8
pH for swimming pool water ([2]; 9:45 am, before calcium hypochlorate addition, 4 pounds borate per 2000 gallons): 7.2-7.8
pH for swimming pool water ([2]; 10:00 am, time of calcium hypochlorate addition): 7.2-7.8
pH for swimming pool water ([2]; 10:55 am): 7.2-7.8
pH for swimming pool water ([2]; 11:15 am): 7.8-8.4
pH for swimming pool water ([2]; 12:00 pm): 7.8-8.4
pH for swimming pool water ([2]; 12:40 pm): 7.8-8.4
Compound: sodium hexaborate

— patent US8465780B2, “Borate micro emulsion and method for making the same” (Nisus Corporation, priority 2006, dated 2013)
